Reference: US20080076729A1, “Interferon-beta gene therapy using an improved, regulated expression system” (Schering Aktiengesellachaft, priority 2005, published 2008)

Experiments:
GAL-4 DBS = conditions: read-out: Kd for binding; cited from earlier work
SJL mice with acute EAE = experiment: Mouse acute EAE model, daily clinical scoring; type: in vivo; conditions: Mesopram 9 mg/kg, Prednisolone 2.5 mg/kg, IP twice daily

Row | Compound | Kd (GAL-4 DBS) [nM] | clinical scores of EAE, positive controls (SJL mice with acute EAE; first study) | clinical scores of EAE, positive controls (SJL mice with acute EAE; second study)
1 | GAL-4 residues 1-100: N-terminal DNA binding fragment of yeast GAL-4 protein | 3 |  | 
2 | CCCOc1cc([C@]2(C)CNC(=O)O2)ccc1OC [Mesopram, reference compound] |  | significantly decreased clinical scores | significantly decreased clinical scores
3 | C[C@]12C=CC(=O)C=C1CC[C@@H]1[C@@H]2[C@@H](O)C[C@@]2(C)[C@H]1CC[C@]2(O)C(=O)CO [Prednisolone, reference compound] |  | significantly decreased clinical scores | significantly decreased clinical scores
